Reference: US12226385B2, “Synergistic composition for activating intracellular secondary messenger(cAMP) pathway” (CELAGENEX RESEARCH (INDIA) PRIVATE LTD., priority 2021, dated 2025)
Like-named read-outs stand apart in the source and are kept apart here.

What was measured:
cAMP = experiment: Modulatory effect on cAMP levels in C6 cells (ELISA kit); assay type: cell-based; settings: C6 (Rat Glioblastoma) cells, 28 hours of incubation, doses per Table 1
Procedure: To assess the effectiveness of test substance on modulation of cAMP and evaluation of BDNF in Rat Glioblastoma cells.
The cytotoxicity profiling of the test substance was carried out to find the safe dose on C6 cells. […] The levels of cAMP in the cell lysate were measured using a suitable ELISA kit to infer the modulatory effect.
10 mg of test substance was separately dissolved in 100 μL of DMSO and volume was made up with Ham's F-12 medium supplemented with 2% inactivated FBS to obtain a stock solution of 10 mg/mL concentration and sterilized by 0.22μ syringe filtration. Serial two-fold dilutions were prepared from this stock solution for further studies.
C6 (Rat Glioblastoma) cell line was procured from NCCS, India. Stock cells was cultured in Ham's F-12 medium supplemented with 10% inactivated Fetal Bovine Serum (FBS), penicillin (100 IU/ml), streptomycin (100 μg/ml) and amphotericin B (5 μg/ml) in a humidified atmosphere of 5% CO2 at 37° C. until confluent. Passaging was done by centrifuging the cells, followed by seeding the pellet into a tissue culture vessel. The stock cultures were grown in 25 cm2 culture flasks and all experiments will be carried out in 96 microtitre plates (Tarsons India Pvt. Ltd., Kolkata, India).
To perform the assay, cells were seeded in 24-well plates containing […] complete Ham's F-12 with 4.5 g/L glucose. […] Then, the selected dose of test substances and positive control (Clozapine) was added to the cells. After 28 hours of incubation, the cell supernatants from respective treatment wells were collected and assayed to estimate the levels of cyclic AMP using a commercially available kit.

BDNF = experiment: Estimation of BDNF levels in C6 cells (Rat BDNF ELISA kit); assay type: cell-based; settings: C6 (Rat Glioblastoma) cells, 28 hours of incubation, doses per Table 1
Procedure: To perform the assay, cells were seeded in 24-well plates containing 500 μL complete Ham's F-12 with 4.5 g/L glucose. After 24 h, the confluent monolayer of cells was firstly incubated with the corresponding inhibitor compound for 1-4 h (based on standardization) minutes in the incubator at 37° C. and 5% CO2. Then, the selected dose of test substances and positive control was added to the cells. After 28 hours of incubation, the cell supernatants from respective treatment wells were collected and assayed to estimate the levels of BDNF using a commercially available Rat BDNF ELISA kit.

ALCAR = experiment: Estimation of ALCAR plasma level (ALCAR ELISA kit); assay type: cell-based, Rat; settings: doses per Table 1
Procedure: f. Estimation of ALCAR Plasma Level (Nmol/Ml): Assay Performed by ALCAR ELISA Kit
(§1) The estimation of modulatory effect of test substance on biochemical parameters were analysed in C6 (Rat Glioblastoma) cell. […] This indicated the increase in synapse number and neuroplasticity.

[1] = tested on: CREB (Cyclic AMP Response Element-Binding Protein); experiment: Estimation of CREB (Cyclic AMP Response Element-Binding Protein); assay type: cell-based, Rat; settings: doses per Table 1
Procedure: g. Estimation of CREB (Cyclic AMP Response Element-Binding Protein) nM Results:
as §1

experimental rat [2] = experiment: Force Swim Test in rats; assay type: in vivo; settings: male Wister rats, n=6, end of treatment, doses per Table 3
Procedure: (§2) Evaluation of physical parameters of the test substances in experimental rat.
(§3) • Species: Rat • Strain: Wister • Sex: Male • No. of animals: 48 Animals (n=6 per group) • Body weight: 180-200 gm Group, Designation and Dose Levels:
(§4) The tests were performed by the known technique.
(§5) The following behavioural test were conducted at the end of the treatment, • Force Swim Test • Open Field Test • Behavioural at Novel Object Test • Behaviour at Elevated Plus Maze (EPM) test

experimental rat [3] = experiment: Open Field Test in rats; assay type: in vivo
Procedure: as §2, §3, §4, §5

experimental rat [4] = experiment: Novel Object Test in rats; assay type: in vivo
Procedure: as §2, §3, §4, §5
Table 5 represent behavioural at novel object test where latency time spent towards the novel objects indicated better memory and learning ability. This test is based on the spontaneous tendency of rats to spend more time exploring a novel object than a familiar one.

experimental rat [5] = experiment: Elevated Plus Maze (EPM) test in rats; assay type: in vivo
Procedure: as §2, §3, §4, §5

[6] = tested on: Adult Patients with Major Depressive Disorder; experiment: Double-blind, fixed-dose clinical study, Hamilton Rating Scale for Depression (HAM-D); assay type: in vivo, human
Procedure: Composition-1—(3R)-3-acetyloxy-4-(trimethylazaniumyl)butanoate+N-4-Aminobutylguanidine—500 mg+250 mg
(§6) A double-blind, Fixed-dose study, 80 participants (males and females) with major depression were randomly assigned to receive test samples. Age eligibility for study include 18 Years to 65 Years (Adult, Older Adult)
Participants were evaluated at visits at screening, baseline/randomization, and 4, 8, and 12 weeks after randomization. Masking—Triple (Participant, Investigator, Outcomes Assessor); Parallel Assignment
Pre-assignment Details: A one-week single-blind placebo period was completed prior to randomization.
Change From Baseline in Hamilton Rating Scale for Depression (HAM-D) at Week 4, 8 and 12 [Time Frame: Change from baseline in HAM-D at week 4, 8 and 12]
The HAMD is a clinician-rated 21-item scale was used to rate the patient's depressive state. It was also used to identify obsessive-compulsive, genital, and somatic symptoms, as well as diurnal variation in the presence of symptoms. Each item was scored on a 1, 2, 3, 4 or 5-point Likert scale. A score of 0 indicated the absence of symptoms, and a score of 2, 3 or 4 indicated symptoms of maximum severity. The total score range is 0 to 62 (higher score indicates a greater depressive state).

[7] = tested on: Adult Patients with Major Depressive Disorder; experiment: Clinical study, serum Acetyl-L carnitine (ALCAR) levels; assay type: in vivo, human
From the text: as §6
To measure serum Acetyl-L carnitine levels pre-treatment and end of 12 weeks and correlate it with severity of depression and treatment outcomes.

[8] = male Wister rats, n=6, end of treatment, doses per Table 3
[9] = pretreatment, whole arm (Table 8)

CN1CCN(C2=Nc3cc(Cl)ccc3Nc3ccccc32)CC1 [Clozapine]
cAMP (cAMP): 4.1 pmol/µL
BDNF (BDNF): 77 ng/L
Plasma ALCAR (ALCAR): 21 nmol/mL
CREB [1]: 0.5 nM
Force Swim Test Immobility (experimental rat [2]): 189 s
Open Field Test Distance walked in corners (experimental rat [3]; [8]): 2200 cm
Open Field Test Latency to reach center (experimental rat [3]; [8]): 38 s
Latency to reach Novel Object (experimental rat [4]; [8]): 03 s
Number of times sniffing the object (experimental rat [4]; [8]): 62 times
Time Spent sniffing the object (experimental rat [4]; [8]): 13%
Number of entries in to open arm (experimental rat [5]; [8]): 10 times
Number of times head dipping (experimental rat [5]; [8]): 18 times
Number of times rearing (experimental rat [5]; [8]): 25 times
Time Spent Rearing (experimental rat [5]; [8]): 19%
Time in the open arms (experimental rat [5]; [8]): 15%
time spent head dipping (experimental rat [5]; [8]): 21%

CN(C)CCC[C@@]1(c2ccc(F)cc2)OCc2cc(C#N)ccc21 [Escitalopram]
cAMP (cAMP): 6.0 pmol/µL
Plasma ALCAR (ALCAR): 23 nmol/mL
CREB [1]: 0.8 nM
Force Swim Test Immobility (experimental rat [2]): 68 s
Open Field Test Distance walked in corners (experimental rat [3]; [8]): 1900 cm
Open Field Test Latency to reach center (experimental rat [3]; [8]): 26 s
Latency to reach Novel Object (experimental rat [4]; [8]): 32 s
Number of times sniffing the object (experimental rat [4]; [8]): 48 times
Time Spent sniffing the object (experimental rat [4]; [8]): 09%
Number of entries in to open arm (experimental rat [5]; [8]): 07 times
Number of times head dipping (experimental rat [5]; [8]): 12 times
Number of times rearing (experimental rat [5]; [8]): 18 times
Time Spent Rearing (experimental rat [5]; [8]): 16%
Time in the open arms (experimental rat [5]; [8]): 11%
time spent head dipping (experimental rat [5]; [8]): 12%
Mean HAM-D Score ([6]; Baseline): 26.2
Mean HAM-D Score ([6]; Week-4): 25.72
Non-Responder Rate ([6]; Week-4): (100%)
Non-Responder Rate, patients/total ([6]; Week-4): 40/40
Remission Rate (HAM-D Score <7) ([6]; Week-4): (0%)
Remission Rate (HAM-D Score <7), patients/total ([6]; Week-4): 0/40
Responder Rate (50% Reduction from baseline) ([6]; Week-4): (0%)
Responder Rate (50% Reduction from baseline), patients/total ([6]; Week-4): 0/40
Mean HAM-D Score ([6]; Week-8): 21.45
Non-Responder Rate ([6]; Week-8): (97.5%)
Non-Responder Rate, patients/total ([6]; Week-8): 39/40
Remission Rate (HAM-D Score <7) ([6]; Week-8): (0%)
Remission Rate (HAM-D Score <7), patients/total ([6]; Week-8): 0/40
Responder Rate (50% Reduction from baseline) ([6]; Week-8): (2.5%)
Responder Rate (50% Reduction from baseline), patients/total ([6]; Week-8): 1/40
Mean HAM-D Score ([6]; Week-12): 13.75
Non-Responder Rate ([6]; Week-12): (52.5%)
Non-Responder Rate, patients/total ([6]; Week-12): 21/40
Remission Rate (HAM-D Score <7) ([6]; Week-12): (17.5%)
Remission Rate (HAM-D Score <7), patients/total ([6]; Week-12): 7/40
Responder Rate (50% Reduction from baseline) ([6]; Week-12): (30%)
Responder Rate (50% Reduction from baseline), patients/total ([6]; Week-12): 12/40
Non-Responder Remission Rate in Female Subgroup ([6]; Week-12, female subgroup): (75%)
Non-Responder Remission Rate in Female Subgroup, patients/total ([6]; Week-12, female subgroup): 21/28
Responder Remission Rate in Female Subgroup ([6]; Week-12, female subgroup): (25%)
Responder Remission Rate in Female Subgroup, patients/total ([6]; Week-12, female subgroup): 7/28
Mean HAM-D Score at pretreatment [6, 9]: 26.2
Mean Serum ALCAR, Non-Responder group ([7]; Baseline): 0.94 µg/mL
Mean Serum ALCAR, Remission group ([7]; Baseline): 1.20 µg/mL
Mean Serum ALCAR, Responder group ([7]; Baseline): 0.91 µg/mL
Mean Serum ALCAR, Non-Responder group ([7]; Week-12): 0.99 µg/mL
Mean Serum ALCAR, Remission group ([7]; Week-12): 3.53 µg/mL
Mean Serum ALCAR, Responder group ([7]; Week-12): 2.19 µg/mL
Mean serum ALCAR at pretreatment [7, 9]: 1.01 microgram/ml

CC(=O)O[C@H](CC(=O)[O-])C[N+](C)(C)C [Group 4, (3R)-3-acetyloxy-4-(trimethylazaniumyl)butanoate]
cAMP (cAMP): 4.8 pmol/µL
BDNF (BDNF): 88 ng/L
Plasma ALCAR (ALCAR): 25 nmol/mL
CREB [1]: 1.0 nM
Force Swim Test Immobility (experimental rat [2]): 55 s
Open Field Test Distance walked in corners (experimental rat [3]; [8]): 1860 cm
Open Field Test Latency to reach center (experimental rat [3]; [8]): 27 s
Latency to reach Novel Object (experimental rat [4]; [8]): 35 s
Number of times sniffing the object (experimental rat [4]; [8]): 49 times
Time Spent sniffing the object (experimental rat [4]; [8]): 08%
Number of entries in to open arm (experimental rat [5]; [8]): 08 times
Number of times head dipping (experimental rat [5]; [8]): 12 times
Number of times rearing (experimental rat [5]; [8]): 18 times
Time Spent Rearing (experimental rat [5]; [8]): 15%
Time in the open arms (experimental rat [5]; [8]): 12%
time spent head dipping (experimental rat [5]; [8]): 11%

N=C(N)NCCCCN [Group 5, N-4-aminobutylguanidine]
cAMP (cAMP): 5.1 pmol/µL
BDNF (BDNF): 91 ng/L
Plasma ALCAR (ALCAR): 22 nmol/mL
CREB [1]: 1.2 nM
Force Swim Test Immobility (experimental rat [2]): 59 s
Open Field Test Distance walked in corners (experimental rat [3]): 1820 cm
Open Field Test Latency to reach center (experimental rat [3]): 25 s
Time Spent sniffing the object (experimental rat [4]): 09%
Latency to reach Novel Object (experimental rat [4]; [8]): 36 s
Number of times sniffing the object (experimental rat [4]; [8]): 47 times
Time Spent Rearing (experimental rat [5]): 13%
time spent head dipping (experimental rat [5]): 10%
Number of entries in to open arm (experimental rat [5]; [8]): 07 times
Number of times head dipping (experimental rat [5]; [8]): 11 times
Number of times rearing (experimental rat [5]; [8]): 16 times
Time in the open arms (experimental rat [5]; [8]): 11%
